Data reported in ChEMBL document CHEMBL1201862, “PubChem BioAssay data set” (2004).
Values belong to the molecule of their own block, whether it stands above or below them. Active and inactive are the calls of the source.

What was measured:
Melanocortin receptor 4 = Melanocortin receptor 4 (Homo sapiens, UniProt P32245); assay: inhibitors of MC4R cAMP signaling – cell-based, TR-FRET, biased antagonists, dose response (AID 602298); format: functional;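 note: antagonist potency against agonist-stimulated cAMP production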
[1] = cAMP pathway inhibition in counterscreen cell line – TR-FRET cAMP detection, counter-screen for MC4R biased antagonist project, dose response (AID 602305); format: functional, cell-based;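 note: U2OS cells stimulated with forskolin near its EC80 as the cAMP inducer; potency is for inhibition of forskolin-stimulated cAMP signaling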
[2] = molecular target: Multidrug resistance protein CDR2 (Candida albicans (strain SC5314 / ATCC MYA-2876) (Yeast), UniProt P78595); assay: inhibition of Nile Red efflux via Candida CDR2 – S. cerevisiae AD1-8u, singleplex, Cherry Pick1 hits, dose response (AID 588604); format: functional
[3] = molecular target: Ribosomal protein S6 kinase alpha-3 (Homo sapiens, UniProt P51812); format: functional;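 note: measured within a kinome-wide profiling panel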
[4] = molecular target: Dual specificity protein kinase CLK2 (Homo sapiens, UniProt P49760); format: functional
[5] = molecular target: Dual specificity mitogen-activated protein kinase kinase 1 (Homo sapiens, UniProt Q02750); assay: Navigating the Kinome. Panel member name: MAP2K1; format: functional
[6] = molecular target: Serine/threonine-protein kinase PLK3 (Homo sapiens, UniProt Q9H4B4); format: functional
[7] = molecular target: Serine/threonine-protein kinase TBK1 (Homo sapiens, UniProt Q9UHD2); assay: Navigating the Kinome. Panel member name: TBK1; format: functional
Sequence of Serine/threonine-protein kinase TBK1 (Q9UHD2 whole entry): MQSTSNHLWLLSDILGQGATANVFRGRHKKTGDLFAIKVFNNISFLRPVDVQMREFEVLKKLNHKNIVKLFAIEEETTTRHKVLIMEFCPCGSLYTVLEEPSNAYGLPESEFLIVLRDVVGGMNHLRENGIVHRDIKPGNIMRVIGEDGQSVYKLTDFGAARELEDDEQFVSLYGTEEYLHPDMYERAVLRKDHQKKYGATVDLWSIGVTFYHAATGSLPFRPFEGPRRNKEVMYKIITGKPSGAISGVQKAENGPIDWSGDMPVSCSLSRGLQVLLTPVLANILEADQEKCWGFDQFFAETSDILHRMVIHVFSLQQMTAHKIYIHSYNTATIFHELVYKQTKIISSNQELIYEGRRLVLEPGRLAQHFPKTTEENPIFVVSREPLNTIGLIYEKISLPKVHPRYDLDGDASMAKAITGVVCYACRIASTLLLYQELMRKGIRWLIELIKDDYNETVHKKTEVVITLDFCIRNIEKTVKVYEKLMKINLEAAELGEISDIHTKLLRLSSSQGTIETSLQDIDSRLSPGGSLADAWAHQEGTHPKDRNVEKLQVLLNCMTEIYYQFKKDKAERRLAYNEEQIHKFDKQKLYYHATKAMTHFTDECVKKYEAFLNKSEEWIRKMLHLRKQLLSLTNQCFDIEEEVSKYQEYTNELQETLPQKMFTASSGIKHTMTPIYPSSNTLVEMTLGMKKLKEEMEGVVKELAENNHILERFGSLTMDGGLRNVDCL

[8] = molecular target: RAC-gamma serine/threonine-protein kinase (Homo sapiens, UniProt Q9Y243); format: functional
[9] = molecular target: 5'-AMP-activated protein kinase catalytic subunit alpha-1 (Homo sapiens, UniProt Q13131); format: functional
[10] = molecular target: Serine/threonine-protein kinase D3 (Homo sapiens, UniProt O94806); format: functional;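 note: determined within a kinase panel screen, with PRKCN as the panel member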
[11] = molecular target: Serine/threonine-protein kinase pim-1 (Homo sapiens, UniProt P11309); format: functional
[12] = molecular target: Serine/threonine-protein kinase PAK 4 (Homo sapiens, UniProt O96013); format: functional;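 note: value obtained within a kinome profiling panel in which PAK4 was one of the panel members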
[13] = molecular target: Fibroblast growth factor receptor 1 (Homo sapiens, UniProt P11362); format: functional
Sequence of Fibroblast growth factor receptor 1 (P11362 whole entry, canonical isoform): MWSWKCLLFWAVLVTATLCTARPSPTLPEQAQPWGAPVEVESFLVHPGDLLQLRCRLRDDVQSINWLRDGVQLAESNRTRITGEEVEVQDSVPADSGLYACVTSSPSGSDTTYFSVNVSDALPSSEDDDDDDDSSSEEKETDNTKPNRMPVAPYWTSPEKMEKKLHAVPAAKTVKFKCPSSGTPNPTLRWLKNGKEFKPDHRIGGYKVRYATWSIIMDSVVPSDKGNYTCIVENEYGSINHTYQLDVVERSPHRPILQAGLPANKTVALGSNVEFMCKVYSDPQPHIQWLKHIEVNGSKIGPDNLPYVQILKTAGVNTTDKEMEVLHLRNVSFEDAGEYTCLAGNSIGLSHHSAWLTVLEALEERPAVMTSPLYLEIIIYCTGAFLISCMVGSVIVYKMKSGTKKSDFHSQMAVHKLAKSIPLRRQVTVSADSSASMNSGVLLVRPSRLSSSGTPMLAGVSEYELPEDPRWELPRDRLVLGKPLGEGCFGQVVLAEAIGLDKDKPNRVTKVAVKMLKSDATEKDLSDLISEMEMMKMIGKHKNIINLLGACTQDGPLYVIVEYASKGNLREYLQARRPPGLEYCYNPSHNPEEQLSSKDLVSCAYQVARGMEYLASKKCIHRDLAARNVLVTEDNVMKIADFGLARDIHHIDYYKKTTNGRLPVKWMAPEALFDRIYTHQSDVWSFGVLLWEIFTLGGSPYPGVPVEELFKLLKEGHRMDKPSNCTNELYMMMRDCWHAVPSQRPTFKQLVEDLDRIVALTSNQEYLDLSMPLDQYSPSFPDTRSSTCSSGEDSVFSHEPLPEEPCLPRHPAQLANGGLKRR

[14] = molecular target: Casein kinase I isoform alpha (Homo sapiens, UniProt P48729); format: functional
[15] = molecular target: Mitogen-activated protein kinase 9 (Homo sapiens, UniProt P45984); format: functional;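 note: value from a kinome panel profiling assay, MAPK9 panel entry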
LIM domain kinase 1 = LIM domain kinase 1 (Homo sapiens, UniProt P53667); assay: Navigating the Kinome. Panel member name: LIMK1; format: functional
[16] = molecular target: Serine/threonine-protein kinase pim-3 (Homo sapiens, UniProt Q86V86); format: functional;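 note: value obtained as one member of a broad kinase panel profiling effort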
[17] = molecular target: Glycogen synthase kinase-3 alpha (Homo sapiens, UniProt P49840); format: functional;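 note: GSK3A result taken from a broad kinome-wide kinase panel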
Activated CDC42 kinase 1 = Activated CDC42 kinase 1 (Homo sapiens, UniProt Q07912); assay: Navigating the Kinome. Panel member name: ACK1; format: functional
[18] = molecular target: Serine/threonine-protein kinase Chk1 (Homo sapiens, UniProt O14757); format: functional;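 note: measured as one member of a kinome-wide kinase profiling panel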
Sequence of Serine/threonine-protein kinase Chk1 (O14757 whole entry): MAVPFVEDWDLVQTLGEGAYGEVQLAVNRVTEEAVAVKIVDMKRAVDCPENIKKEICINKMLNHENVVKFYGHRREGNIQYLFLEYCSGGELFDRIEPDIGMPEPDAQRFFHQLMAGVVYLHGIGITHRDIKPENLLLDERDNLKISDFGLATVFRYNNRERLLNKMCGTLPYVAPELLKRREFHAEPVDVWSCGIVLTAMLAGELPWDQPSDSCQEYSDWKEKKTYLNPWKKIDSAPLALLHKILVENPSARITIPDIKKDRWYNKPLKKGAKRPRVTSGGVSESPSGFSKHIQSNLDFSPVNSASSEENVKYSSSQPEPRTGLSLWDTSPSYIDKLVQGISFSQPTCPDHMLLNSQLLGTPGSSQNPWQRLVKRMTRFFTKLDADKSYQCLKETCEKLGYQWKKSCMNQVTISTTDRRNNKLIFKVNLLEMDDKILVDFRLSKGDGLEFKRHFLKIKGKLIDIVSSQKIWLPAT

[19] = molecular target: G protein-coupled receptor kinase 5 (Homo sapiens, UniProt P34947); assay: Navigating the Kinome. Panel member name: GPRK5; format: functional
[20] = molecular target: Cyclin-dependent kinase 5 (Homo sapiens, UniProt Q00535); format: functional;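 note: CDK5 measured as one member of a kinase profiling panel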
Sequence of Cyclin-dependent kinase 5 (Q00535 whole entry): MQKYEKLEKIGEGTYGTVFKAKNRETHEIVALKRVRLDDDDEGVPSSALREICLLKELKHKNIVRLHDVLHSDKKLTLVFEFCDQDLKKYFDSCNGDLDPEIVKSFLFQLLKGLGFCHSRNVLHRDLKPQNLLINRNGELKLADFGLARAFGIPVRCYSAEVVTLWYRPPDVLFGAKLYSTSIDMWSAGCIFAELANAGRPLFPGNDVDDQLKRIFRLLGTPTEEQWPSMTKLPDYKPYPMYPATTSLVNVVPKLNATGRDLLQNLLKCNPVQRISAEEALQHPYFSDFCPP

[21] = molecular target: Dual specificity tyrosine-phosphorylation-regulated kinase 1B (Homo sapiens, UniProt Q9Y463); assay: Navigating the Kinome. Panel member name: DYRK1B; format: functional
Sequence of Dual specificity tyrosine-phosphorylation-regulated kinase 1B (Q9Y463 whole entry): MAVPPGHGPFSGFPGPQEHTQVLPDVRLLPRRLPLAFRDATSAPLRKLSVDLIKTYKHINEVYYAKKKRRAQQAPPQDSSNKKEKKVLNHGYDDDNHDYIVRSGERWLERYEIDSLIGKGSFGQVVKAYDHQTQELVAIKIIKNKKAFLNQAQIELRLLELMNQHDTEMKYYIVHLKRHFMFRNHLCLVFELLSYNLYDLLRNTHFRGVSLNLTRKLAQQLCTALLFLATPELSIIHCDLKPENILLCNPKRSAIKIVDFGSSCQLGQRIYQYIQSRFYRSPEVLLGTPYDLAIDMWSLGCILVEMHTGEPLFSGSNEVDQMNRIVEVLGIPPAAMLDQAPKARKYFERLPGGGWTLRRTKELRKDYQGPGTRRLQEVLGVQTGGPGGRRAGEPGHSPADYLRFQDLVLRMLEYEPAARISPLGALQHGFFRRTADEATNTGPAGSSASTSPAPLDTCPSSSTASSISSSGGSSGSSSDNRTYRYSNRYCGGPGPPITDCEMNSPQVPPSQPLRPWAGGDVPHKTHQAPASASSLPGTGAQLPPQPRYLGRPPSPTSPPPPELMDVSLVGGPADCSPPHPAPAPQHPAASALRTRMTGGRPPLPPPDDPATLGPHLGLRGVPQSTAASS

[22] = molecular target: cAMP-dependent protein kinase catalytic subunit PRKX (Homo sapiens, UniProt P51817); format: functional
[23] = molecular target: Leucine-rich repeat serine/threonine-protein kinase 2 (Homo sapiens, UniProt Q5S007); format: functional;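 note: value from a broad kinome-wide panel profiling study in which LRRK2 was one of the kinases tested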
Aurora kinase B = Aurora kinase B (Homo sapiens, UniProt Q96GD4); format: functional
Sequence of Aurora kinase B (Q96GD4 whole entry): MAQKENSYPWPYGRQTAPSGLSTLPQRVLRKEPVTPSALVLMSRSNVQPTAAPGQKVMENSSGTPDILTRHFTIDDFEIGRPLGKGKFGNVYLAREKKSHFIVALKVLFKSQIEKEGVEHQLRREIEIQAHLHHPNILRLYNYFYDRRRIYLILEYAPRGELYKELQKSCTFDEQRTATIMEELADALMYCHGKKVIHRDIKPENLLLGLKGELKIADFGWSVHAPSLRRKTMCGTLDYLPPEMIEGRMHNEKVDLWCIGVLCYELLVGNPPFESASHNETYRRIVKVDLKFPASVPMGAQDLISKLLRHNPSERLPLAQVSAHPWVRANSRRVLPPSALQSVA

[24] = molecular target: RAC-alpha serine/threonine-protein kinase (Homo sapiens, UniProt P31749); format: functional;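 note: AKT1 affinity measured as one member of a kinome-wide kinase profiling panel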
[25] = molecular target: Rho-associated protein kinase 1 (Homo sapiens, UniProt Q13464); format: functional;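 note: measured within a broad kinome-wide panel profiling many kinases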
[26] = molecular target: Serine/threonine-protein kinase Nek2 (Homo sapiens, UniProt P51955); format: functional
[27] = molecular target: Cyclin-dependent kinase 8 (Homo sapiens, UniProt P49336); assay: Navigating the Kinome. Panel member name: CDK8; format: functional
[28] = molecular target: Cyclin-dependent kinase 7 (Homo sapiens, UniProt P50613); format: functional;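 note: value comes from a kinome-wide kinase profiling panel in which CDK7 is one member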
[29] = molecular target: Serine/threonine-protein kinase PLK1 (Homo sapiens, UniProt P53350); format: functional;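 note: PLK1 measured as one member of a kinome-wide profiling panel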
[30] = molecular target: Glycogen synthase kinase-3 beta (Homo sapiens, UniProt P49841); format: functional;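 note: value comes from a broad kinome profiling panel, with GSK3B as the panel member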
Sequence of Glycogen synthase kinase-3 beta (P49841 whole entry): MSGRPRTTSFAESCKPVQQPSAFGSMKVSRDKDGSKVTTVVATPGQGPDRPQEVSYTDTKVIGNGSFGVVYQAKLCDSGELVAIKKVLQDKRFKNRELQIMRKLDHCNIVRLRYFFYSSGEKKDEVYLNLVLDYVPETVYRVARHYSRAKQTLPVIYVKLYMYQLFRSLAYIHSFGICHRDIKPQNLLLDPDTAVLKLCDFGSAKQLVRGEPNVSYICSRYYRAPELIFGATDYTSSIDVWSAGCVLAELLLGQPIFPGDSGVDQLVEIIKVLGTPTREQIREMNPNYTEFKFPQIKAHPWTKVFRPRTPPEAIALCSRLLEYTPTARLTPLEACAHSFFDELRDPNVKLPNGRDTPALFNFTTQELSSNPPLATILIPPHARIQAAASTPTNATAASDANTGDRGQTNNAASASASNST

[31] = molecular target: BDNF/NT-3 growth factors receptor (Homo sapiens, UniProt Q16620); format: functional;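 note: NTRK2 measured as one member of a broad kinome-wide kinase profiling panel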
Sequence of BDNF/NT-3 growth factors receptor (Q16620 whole entry): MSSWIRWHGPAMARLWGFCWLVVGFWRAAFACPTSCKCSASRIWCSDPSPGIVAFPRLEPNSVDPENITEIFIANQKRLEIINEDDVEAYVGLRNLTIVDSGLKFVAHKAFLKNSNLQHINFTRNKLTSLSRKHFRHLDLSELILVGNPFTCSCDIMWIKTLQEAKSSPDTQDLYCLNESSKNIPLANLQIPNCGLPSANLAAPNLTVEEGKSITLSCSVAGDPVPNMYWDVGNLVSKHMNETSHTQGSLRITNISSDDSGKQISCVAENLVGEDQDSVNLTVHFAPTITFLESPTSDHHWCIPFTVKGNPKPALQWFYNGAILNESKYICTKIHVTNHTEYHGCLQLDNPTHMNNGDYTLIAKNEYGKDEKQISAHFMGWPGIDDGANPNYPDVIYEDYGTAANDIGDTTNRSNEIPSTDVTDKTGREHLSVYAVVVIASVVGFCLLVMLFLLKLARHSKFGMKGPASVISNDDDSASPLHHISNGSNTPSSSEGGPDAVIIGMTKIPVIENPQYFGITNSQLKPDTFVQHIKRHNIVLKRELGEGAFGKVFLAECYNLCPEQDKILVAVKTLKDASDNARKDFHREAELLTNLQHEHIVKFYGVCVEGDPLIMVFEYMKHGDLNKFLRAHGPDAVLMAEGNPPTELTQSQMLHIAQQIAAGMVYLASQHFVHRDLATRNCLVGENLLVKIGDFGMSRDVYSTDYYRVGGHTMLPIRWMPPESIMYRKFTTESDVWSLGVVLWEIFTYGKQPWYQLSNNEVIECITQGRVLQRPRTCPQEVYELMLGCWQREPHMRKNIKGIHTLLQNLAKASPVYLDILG

[32] = molecular target: Dual specificity protein kinase CLK4 (Homo sapiens, UniProt Q9HAZ1); format: functional
Sequence of Dual specificity protein kinase CLK4 (Q9HAZ1 whole entry): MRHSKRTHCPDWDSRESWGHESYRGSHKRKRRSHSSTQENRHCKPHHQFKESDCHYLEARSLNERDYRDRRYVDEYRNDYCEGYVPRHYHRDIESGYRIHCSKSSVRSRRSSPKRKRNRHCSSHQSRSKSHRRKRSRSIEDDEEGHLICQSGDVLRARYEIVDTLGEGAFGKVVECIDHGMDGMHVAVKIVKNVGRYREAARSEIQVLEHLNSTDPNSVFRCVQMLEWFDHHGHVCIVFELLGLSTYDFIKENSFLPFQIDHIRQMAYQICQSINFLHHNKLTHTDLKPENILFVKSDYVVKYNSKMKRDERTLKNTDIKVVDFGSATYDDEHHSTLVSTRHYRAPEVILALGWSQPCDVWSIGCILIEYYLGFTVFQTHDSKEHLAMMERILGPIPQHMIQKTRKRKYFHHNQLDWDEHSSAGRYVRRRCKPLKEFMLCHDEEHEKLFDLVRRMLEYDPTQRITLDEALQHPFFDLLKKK

[33] = molecular target: Macrophage-stimulating protein receptor (Homo sapiens, UniProt Q04912); assay: Navigating the Kinome. Panel member name: MST1R; format: functional
[34] = molecular target: Dual specificity mitogen-activated protein kinase kinase 2 (Homo sapiens, UniProt P36507); assay: Navigating the Kinome. Panel member name: MAP2K2; format: functional
[35] = molecular target: Dual specificity tyrosine-phosphorylation-regulated kinase 1A (Homo sapiens, UniProt Q13627); format: functional;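 note: measured against DYRK1A as one member of a broad kinome profiling panel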
[36] = molecular target: Inhibitor of nuclear factor kappa-B kinase subunit epsilon (Homo sapiens, UniProt Q14164); assay: Navigating the Kinome. Panel member name: IKBKE; format: functional
[37] = molecular target: Calcium/calmodulin-dependent protein kinase type II subunit alpha (Homo sapiens, UniProt Q9UQM7); assay: Navigating the Kinome. Panel member name: CAMK2A; format: functional
[38] = molecular target: Mitogen-activated protein kinase 14 (Homo sapiens, UniProt Q16539); format: functional;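 note: part of a kinome-wide panel, MAPK14 entry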
Aurora kinase A = Aurora kinase A (Homo sapiens, UniProt O14965); format: functional;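 note: value from the Navigating the Kinome kinase panel profiling, panel entry STK6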
[39] = molecular target: Vascular endothelial growth factor receptor 2 (Homo sapiens, UniProt P35968); format: functional
[40] = molecular target: High affinity nerve growth factor receptor (Homo sapiens, UniProt P04629); format: functional;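 note: NTRK1 tested as one member of a kinome-wide profiling panel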
[41] = molecular target: Hepatocyte growth factor receptor (Homo sapiens, UniProt P08581); format: functional;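 note: kinase panel profiling across the kinome, with MET as the panel member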
[42] = molecular target: cAMP-dependent protein kinase catalytic subunit alpha (Homo sapiens, UniProt P17612); format: functional
[43] = molecular target: Serine/threonine-protein kinase TAO1 (Homo sapiens, UniProt Q7L7X3); format: functional

Ki [3]: > 79.4 µM (inactive)
Ki [4]: > 79.4 µM (inactive)
Ki [5]: > 63.1 µM (inactive)
Ki [6]: > 79.4 µM (inactive)
Ki [7]: > 63.1 µM (inactive)
Ki [8]: > 100 µM (inactive)
Ki [9]: > 63.1 µM (inactive)
Ki [10]: > 79.4 µM (inactive)
Ki [11]: 50.1 µM (active)
Ki [12]: > 100 µM (inactive)
Ki [13]: > 63.1 µM (inactive)
Ki [14]: 63.1 µM (active)
Ki [15]: > 79.4 µM (inactive)
Ki (LIM domain kinase 1): > 63.1 µM (inactive)
Ki [16]: > 79.4 µM (inactive)
Ki [17]: > 79.4 µM (inactive)
Ki (Activated CDC42 kinase 1): > 79.4 µM (inactive)
Ki [18]: > 79.4 µM (inactive)
Ki [19]: > 79.4 µM (inactive)
Ki [20]: 63.1 µM (active)
Ki [21]: 31.6 µM (active)
Ki [22]: > 63.1 µM (inactive)
Ki [23]: 31.6 µM (active)
Ki (Aurora kinase B): > 79.4 µM (inactive)
Ki [24]: > 79.4 µM (inactive)
Ki [25]: 20 µM (active)
Ki [26]: > 63.1 µM (inactive)
Ki [27]: > 79.4 µM (inactive)
Ki [28]: > 79.4 µM (inactive)
Ki [29]: > 79.4 µM (inactive)
Ki [30]: > 79.4 µM (inactive)
Ki [31]: > 79.4 µM (inactive)
Ki [32]: 6.31 µM (active)
Ki [33]: > 79.4 µM (inactive)
Ki [34]: > 79.4 µM (inactive)
Ki [35]: 20 µM (active)
Ki [36]: > 63.1 µM (inactive)
Ki [37]: > 79.4 µM (inactive)
Ki [38]: > 79.4 µM (inactive)
Structure (SMILES): O=C1NCc2c(Br)cccc21

Ki (Aurora kinase A): > 2 µM (inactive)
Ki [39]: 3.98 µM (active)
Ki (Aurora kinase B): 0.0794 µM (active)
Structure (SMILES): Nc1nc(SCC(=O)Nc2ncccn2)nc2nc[nH]c12

Ki [43]: 1.58 µM (active)
Ki [20]: 0.794 µM (active)
Ki [32]: 1.26 µM (active)
Structure (SMILES): Nc1cc(Nc2ccc(O)c(CNC(=O)C(F)(F)F)c2)ncn1

More lines, now with the values behind:

Structure (SMILES): O=C(CNC(=O)C(c1ccccc1)c1ccccc1)OCc1ccccc1
IC50 (Melanocortin receptor 4): > 64.6 µM (inactive)
IC50 [1]: > 64.6 µM (inactive)

Structure (SMILES): O=C(N=C(NC(=O)c1ccccc1)Nc1nc2ccccc2o1)c1ccccc1
EC50 [2]: 1.53 µM (active)

Structure (SMILES): O=C1NCc2ccc(-c3ccc(Cl)cc3)cc21
Ki [13]: 63.1 µM (active)
Ki [40]: 63.1 µM (active)
Ki [41]: 63.1 µM (active)
Ki [30]: 63.1 µM (active)
Ki [42]: 50.1 µM (active)
